{"source": "patent US20260256794A1", "about": "“Oral Dynamine Formulations and Methods Therefor” (Ortho-Nutra, LLC, priority 2023, published 2026)", "format_in_all_cases": "in vivo, human", "key": {"[1]": {"tested_on": "subjects", "assay": "Stroop-Total Score", "method": "(§1) The inventors have discovered various compositions and methods of improving various indices of neurological and neuroenergetic functions by administering 100 mg (once daily) dosages of DYNAMINE™ (dosage between 1.0 and 1.4 mg/kg) as described in the following:\n(§2) All neuroenergetic tests as listed below were performed and data were collected after 0 and 4 days of assigned supplements (with acute effects also measured at day 4 over 180 minutes):\nStroop Color Matching Test (Total Score, Accuracy %, Average Score): Day 0: Two blocks of three tests were completed. Each block of three tests was separated by 10 minutes. The median of each block was taken and then those two scores were averaged. This value was used in all statistical analysis. Day 4: Three tests were completed at four time points: after 0, 60, 120, and 180 minutes of taking dose #4. The median of the three tests at each time point was used in all statistical analysis.\nThe Stroop Color and Word Test (SCWT, or Stroop test) is a neuropsychological test extensively used to assess the ability to inhibit cognitive interference that occurs when the processing of a specific stimulus feature impedes the simultaneous processing of a second stimulus attribute, well-known as the Stroop effect (see e.g., Front Psychol. 2017; 8:557). Here, subjects were required to read three different tables as fast as possible. Two of them represent the “congruous condition” in which participants are required to read names of colors (‘color-words’) printed in black ink (W) and name different color patches (C). However, in the third table, the color-word (CW) condition, color-words are printed in an inconsistent color ink (e.g., the word “red” is printed in green ink). In this incongruent condition, participants are required to name the color of the ink instead of reading the word. In other words, the participants are required to perform a less automated task (i.e., naming ink color) while inhibiting the interference arising from a more automated task (i.e., reading the word). This difficulty in inhibiting the more automated process is called the Stroop effect. The Stroop test is predominantly used to measure the ability to inhibit cognitive interference. However, some sources also report its application to measure other cognitive functions such as attention, processing speed, cognitive flexibility, and working memory.\nStroop-Total Score: The results for this test were based on a total score comparing performance between Day 0 and Day 4, with Day 4 including tests over a duration of 180 minutes. Results were collected as noted above and Table 41 provides exemplary results for Day 0 versus Day 4 ratings, whereas Table 42 provides exemplary acute results measured at Day 4 over a duration of 180 minutes."}, "[2]": {"tested_on": "subjects", "assay": "VAS-Well-Being", "set-up": "VAS-Well-Being rating, Mean / VAS-Well-Being changes from baseline, Mean Difference ± SE / VAS-Well-Being area under the curve, Mean Difference ± SE / VAS-Well-Being area under the curve, Mean: scale not given here", "method": "as §1, §2\n(§3) All VAS Measurement (Energy, Sustained Energy, Mental Stamina, Ability to Focus, Ability to Concentrate, Motivation to Accomplish Difficult Tasks, Drive, Vigor, Level of Positive Outlook, Mood, Feelings of Well-Being, Tolerate Stress); Day 0: Two tests were completed. The average of both scores was computed and this value was used in all statistical analysis. Day 4 (0 minutes after ingesting dose #4): Two tests were completed. The average of both scores was computed and this value was used in all statistical analysis. Day 4 (60, 120, and 180 minutes after ingesting dose #4): One test was completed at each time point.\n(§4) Neuroenergic parameters are inherently subjective, nevertheless significant in human behavior and well-being. To allow for a standardization among different subjects, the following experiments were performed using a visual analog scale using anchor statements (lowest possible/highest possible) in which subjects were asked to rate their subjective experience with respect to the specific neuroenergic parameters tested.\nVAS-Well-Being: In this subjective test, subjects were asked to rate their personal level of energy on a VAS scale using the prompt of “My feeling of well-being right now is . . . ” (with rating lowest possible to highest possible)”. Results were collected as noted above and Table 34 provides exemplary results for Day 0 versus Day 4 ratings, whereas Table 35 provides exemplary acute results measured at Day 4 over a duration of 180 minutes."}, "[3]": {"tested_on": "subjects", "assay": "VAS-Ability to focus", "set-up": "VAS-Ability to focus rating, Mean / VAS-Ability to focus changes from baseline, Mean Difference ± SE / VAS-Ability to focus area under the curve, Mean Difference ± SE / VAS-Ability to focus area under the curve, Mean: scale not given here", "method": "as §1, §2, §3, §4\nVAS-Ability to focus: In this subjective test, subjects were asked to rate their personal level of energy on a VAS scale using the prompt of “My ability to focus right now is . . . ” (with rating lowest possible to highest possible)”. Results were collected as noted above and Table 13 provides exemplary results for Day 0 versus Day 4 ratings, whereas Table 14 provides exemplary acute results measured at Day 4 over a duration of 180 minutes."}, "[4]": {"settings": "100 mg once daily, Day 4, 0 min after dose #4"}, "[5]": {"settings": "100 mg once daily, Day 4, 60 min after dose #4"}, "[6]": {"settings": "100 mg once daily, Day 4, 120 min after dose #4"}, "[7]": {"settings": "100 mg once daily, Day 4, 180 min after dose #4"}, "[8]": {"settings": "100 mg once daily, Day 4, 0-180 min"}, "[9]": {"settings": "100 mg once daily, Day 4, 0-180 min, vs Group A (placebo)"}, "[10]": {"settings": "100 mg once daily, Day 4, 60 min-0 min, vs Group A (placebo)"}, "[11]": {"settings": "100 mg once daily, Day 4, 120 min-0 min, vs Group A (placebo)"}, "[12]": {"settings": "100 mg once daily, Day 4, 180 min-0 min, vs Group A (placebo)"}}, "data": [{"smiles": "COc1nc2c(c(=O)n1C)n(C)c(=O)n2C", "note": "[methylliberine, 2-methoxy-1,7,9-trimethylpurine-6,8-dione]", "values": [{"measurement": "Stroop total score, Mean", "setting": "[1]; [4]", "result": 127.4}, {"measurement": "Stroop total score, Mean", "setting": "[1]; [5]", "result": 131.5}, {"measurement": "Stroop total score, Mean", "setting": "[1]; [6]", "result": 132.1}, {"measurement": "Stroop total score, Mean", "setting": "[1]; [7]", "result": 134.8}, {"measurement": "Stroop total score, Mean", "setting": "[1]; Day 0 (before supplementation)", "result": 125.0}, {"measurement": "VAS-Well-Being area under the curve, Mean", "setting": "[2]; [8]", "result": 1239}, {"measurement": "VAS-Well-Being area under the curve, Mean Difference ± SE", "setting": "[2]; [9]", "result": "14.9 ± 43.0"}, {"measurement": "VAS-Well-Being area under the curve, effect size d", "setting": "[2]; [9]", "result": "−0.05"}, {"measurement": "VAS-Well-Being rating, Mean", "setting": "[2]; [4]", "result": 6.4}, {"measurement": "VAS-Well-Being changes from baseline, Mean Difference ± SE", "setting": "[2]; [10]", "result": "0.16 ± 0.16"}, {"measurement": "VAS-Well-Being changes from baseline, effect size d", "setting": "[2]; [10]", "result": 0.22}, {"measurement": "VAS-Well-Being rating, Mean", "setting": "[2]; [5]", "result": 6.8}, {"measurement": "VAS-Well-Being changes from baseline, Mean Difference ± SE", "setting": "[2]; [11]", "result": "0.46 ± 0.29"}, {"measurement": "VAS-Well-Being changes from baseline, effect size d", "setting": "[2]; [11]", "result": 0.45}, {"measurement": "VAS-Well-Being rating, Mean", "setting": "[2]; [6]", "result": 7.3}, {"measurement": "VAS-Well-Being changes from baseline, Mean Difference ± SE", "setting": "[2]; [12]", "result": "0.54 ± 1.34"}, {"measurement": "VAS-Well-Being changes from baseline, effect size d", "setting": "[2]; [12]", "result": 0.52}, {"measurement": "VAS-Well-Being rating, Mean", "setting": "[2]; [7]", "result": 7.2}, {"measurement": "VAS-Well-Being rating, Mean", "setting": "[2]; Day 0 (before supplementation)", "result": 6.8}, {"measurement": "VAS-Ability to focus area under the curve, Mean", "setting": "[3]; [8]", "result": 1155}, {"measurement": "VAS-Ability to focus area under the curve, Mean Difference ± SE", "setting": "[3]; [9]", "result": "55.3 ± 40.9"}, {"measurement": "VAS-Ability to focus area under the curve, effect size d", "setting": "[3]; [9]", "result": 0.17}, {"measurement": "VAS-Ability to focus rating, Mean", "setting": "[3]; [4]", "result": 6.0}, {"measurement": "VAS-Ability to focus changes from baseline, Mean Difference ± SE", "setting": "[3]; [10]", "result": "0.35 ± 0.30"}, {"measurement": "VAS-Ability to focus changes from baseline, effect size d", "setting": "[3]; [10]", "result": 0.34}, {"measurement": "VAS-Ability to focus rating, Mean", "setting": "[3]; [5]", "result": 6.4}, {"measurement": "VAS-Ability to focus changes from baseline, Mean Difference ± SE", "setting": "[3]; [11]", "result": "0.20 ± 0.26"}, {"measurement": "VAS-Ability to focus changes from baseline, effect size d", "setting": "[3]; [11]", "result": 0.20}, {"measurement": "VAS-Ability to focus rating, Mean", "setting": "[3]; [6]", "result": 6.5}, {"measurement": "VAS-Ability to focus changes from baseline, Mean Difference ± SE", "setting": "[3]; [12]", "result": "0.44 ± 0.24"}, {"measurement": "VAS-Ability to focus changes from baseline, effect size d", "setting": "[3]; [12]", "result": 0.38}, {"measurement": "VAS-Ability to focus rating, Mean", "setting": "[3]; [7]", "result": 6.7}, {"measurement": "VAS-Ability to focus rating, Mean", "setting": "[3]; Day 0 (before supplementation)", "result": 5.9}]}]}
